Patent US9732094B2, “Arylquinazolines” (Merck Patent GmbH, priority 2013, dated 2017)
Like-named read-outs stand apart in the source and are kept apart here.

How the values were obtained:
[1] = biological target: DNA-PK (Homo sapiens (Human), UniProt P78527); experiment: DNA-PK assay (biochemical), flashplate 33P-ATP kinase assay; conditions: biochemical DNA-PK assay
In short: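 Radiometric kinase reaction in streptavidin-coated flashplates, stopped with 200 mM EDTA, then 30 min room-temperature incubation and saline washes.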

[2] = biological target: DNA-PK phosphorylation at serine 2056 (Homo sapiens (Human), UniProt P78527); experiment: DNA-PK phosphorylation at serine 2056 (cellular), bleomycin-treated HCT116 cells, ELISA; assay type: cell-based; conditions: cellular DNA-PK phosphorylation at serine 2056, HCT116; read-out: IC50 pDNA-PK
In short: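 HCT116 cells grown overnight were co-treated with 10 μM bleomycin and test compound for 6 h at 37 °C. Phospho-DNA-PK was quantified by chemiluminescent ELISA and normalised to total DNA-PKcs signal, with DMSO control as blank.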

[3] = biological target: Kv11.1 (hERG) (Homo sapiens (Human), UniProt Q12809); experiment: Kv11.1 (hERG) ion channel activity (patch clamp assay), HEK293 cells transfected with hERG gene; conditions: hERG patch clamp assay (cells without asterisk)
Kv11.1 (hERG), sequence (Q12809 whole entry): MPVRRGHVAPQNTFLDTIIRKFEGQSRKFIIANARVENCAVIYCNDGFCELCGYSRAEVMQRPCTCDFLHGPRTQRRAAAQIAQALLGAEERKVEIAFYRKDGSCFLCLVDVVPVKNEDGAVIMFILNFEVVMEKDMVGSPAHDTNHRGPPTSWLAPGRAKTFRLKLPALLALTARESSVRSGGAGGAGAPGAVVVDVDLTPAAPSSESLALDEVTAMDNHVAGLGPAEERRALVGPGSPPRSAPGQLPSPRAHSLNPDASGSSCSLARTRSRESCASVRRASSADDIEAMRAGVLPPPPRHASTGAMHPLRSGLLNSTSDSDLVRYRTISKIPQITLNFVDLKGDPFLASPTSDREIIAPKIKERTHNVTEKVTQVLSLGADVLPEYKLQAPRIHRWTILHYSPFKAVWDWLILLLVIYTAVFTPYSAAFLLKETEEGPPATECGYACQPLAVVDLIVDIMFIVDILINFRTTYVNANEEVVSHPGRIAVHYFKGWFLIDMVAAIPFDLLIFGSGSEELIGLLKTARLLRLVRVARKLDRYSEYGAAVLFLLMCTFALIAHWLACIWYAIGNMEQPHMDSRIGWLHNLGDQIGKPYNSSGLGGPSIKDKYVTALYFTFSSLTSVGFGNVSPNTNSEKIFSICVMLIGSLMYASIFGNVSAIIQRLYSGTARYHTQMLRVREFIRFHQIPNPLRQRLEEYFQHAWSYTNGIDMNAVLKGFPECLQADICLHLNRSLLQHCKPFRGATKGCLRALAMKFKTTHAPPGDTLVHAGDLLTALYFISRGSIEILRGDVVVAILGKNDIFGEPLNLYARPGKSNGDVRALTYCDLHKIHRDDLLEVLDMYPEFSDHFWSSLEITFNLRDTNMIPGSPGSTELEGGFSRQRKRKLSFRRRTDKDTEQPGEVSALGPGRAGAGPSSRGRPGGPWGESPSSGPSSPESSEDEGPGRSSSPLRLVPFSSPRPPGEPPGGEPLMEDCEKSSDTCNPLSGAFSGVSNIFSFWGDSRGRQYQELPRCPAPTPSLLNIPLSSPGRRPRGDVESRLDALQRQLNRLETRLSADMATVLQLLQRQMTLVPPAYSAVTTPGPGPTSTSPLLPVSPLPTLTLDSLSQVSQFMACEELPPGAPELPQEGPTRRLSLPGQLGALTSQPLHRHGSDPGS

SMILES	IC50 [1] [µM]	IC50 [2] [µM]	Ki ([3]; read-out: Ki [Kv1.11 hERG]) [µM]	Ki ([3]; Ki [Kv1.11 hERG]) [µM]
[2H]C1([2H])OC([2H])([2H])C([2H])([2H])N(c2ccc3c(-c4cc([C@H](O)c5nccnc5C)ccc4F)ncnc3c2)C1([2H])[2H] [Example 243, (S)-[4-Fluoro-3-[7-(2,2,3,3,5,5,6,6-octadeuteriomorpholin-4-yl)quinazolin-4-yl]phenyl]-(3-methylpyrazin-2-yl)methanol]	0.007 to 0.03	0.5 to 5	15 to 25	–
COc1nccnc1C(O)c1cc(-c2ncnc3cc(N4CCOCC4)cnc23)c(F)cc1Cl (stereo not drawn) [Example 247, [2-Chloro-4-fluoro-5-(7-morpholin-4-yl-pyrido[3,2-d}-pyrimidin-4-yl)-phenyl]-(3-methoxy-pyrazin-2-yl)-methanol]	0.007 to 0.03	5 to 10	–	15 to 25
Cc1nccnc1[C@H](O)c1ccc(F)c(-c2ncnc3cc(N4CCOCC4)cc(F)c23)c1 [Example 248, (R)-[4-Fluoro-3-(5-fluoro-7-morpholin-4-ylquinazolin-4-yl)-phenyl]-(3-methyl-pyrazin-2-yl)-methanol]	< 0.003	< 0.5	> 25	–
COc1ccc(C(O)c2cc(-c3ncnc4cc(N5CCOCC5)cnc34)c(F)cc2Cl)nn1 (stereo not drawn) [Example 257, [2-Chloro-4-fluoro-5-(7-morpholin-4-yl-pyrido[3,2-d}-pyrimidin-4-yl)-phenyl]-(6-methoxy-pyridazin-3-yl)-methanol]	0.003 to 0.007	0.5 to 5	> 25	–
COc1ccc(C(O)c2ccc(F)c(-c3ncnc4cc(N5CCOCC5)cc(F)c34)c2)nn1 (stereo not drawn) [Example 260, [4-Fluoro-3-(5-fluoro-7-morpholin-4-yl-quinazolin-4-yl)-phenyl]-(6-methoxy-pyridazin-3-yl)-methanol]	< 0.003	< 0.5	> 25	–
COc1nccnc1C(C(N)=O)c1cc(-c2ncnc3cc(N4CCOCC4)cc(F)c23)c(F)cc1Cl (stereo not drawn) [Example 261, 2-[2-Chloro-4-fluoro-5-(5-fluoro-7-morpholin-4-yl-quinazolin-4-yl)-phenyl]-2-(3-methoxy-pyrazin-2-yl)acetamide]	0.007 to 0.03	0.5 to 5	–	15 to 25
Cc1nccnc1C(O)c1ccc(F)c(-c2ncnc3cc(N4CCOCC4)c(F)cc23)c1 (stereo not drawn) [Example 283, [4-Fluoro-3-(6-fluoro-7-morpholin-4-yl-quinazolin-4-yl)-phenyl]-(3-methyl-pyrazin-2-yl)-methanol]	0.007 to 0.03	10 to 30	> 25	–
NC(=O)C(c1ccc(F)c(-c2ncnc3cc(N4CCOCC4)ccc23)c1)c1nncc2sccc12 (stereo not drawn) [Example 285, 2-[4-Fluoro-3-(7-morpholin-4-yl-quinazolin-4-yl)-phenyl]-2-thieno-[2,3-d}pyridazin-4-yl-acetamide]	0.003 to 0.007	10 to 30	–	15 to 25
NC(=O)C(c1cc(-c2ncnc3cc(N4CCOCC4)ccc23)c(F)cc1Cl)c1ncccc1Cl (stereo not drawn) [Example 289, 2-[2-Chloro-4-fIuoro-5-(7-morpholin-4-yl-quinazolin-4-yl)-phenyl]-2-(3-chloro-pyridin-2-yl)-acetamide]	< 0.003	0.5 to 5	–	15 to 25
NC(=O)C(c1ccc(F)c(-c2ncnc3cc(N4CCOCC4)ccc23)c1)c1nnc(Cl)c2ccsc12 (stereo not drawn) [Example 290, 2-(4-Chlorothieno-[2,3-d}pyridazin-7-yl)-2-[4-fluoro-3-(7-morpholin-4-yl-quinazolin-4-yl)-phenyl]acetamide]	0.003 to 0.007	5 to 10	< 10	–
NC(=O)C(c1ccc(F)c(-c2ncnc3cc(N4CCOCC4)ccc23)c1)c1nnc(Cl)c2sccc12 (stereo not drawn) [Example 291, 2-(7-Chlorothieno-[2,3-d}pyridazin-4-yl)-2-[4-fluoro-3-(7-morpholin-4-yl-quinazolin-4-yl)-phenyl]acetamide]	0.003 to 0.007	5 to 10	< 10	–
NC(=O)c1cncc(C(C(N)=O)c2ccc(F)c(-c3ncnc4cc(N5CCOCC5)ccc34)c2)n1 (stereo not drawn) [Example 292, 6-{Carbamoyl-[4-fluoro-3-(7-morpholin-4-yl-quinazolin-4-yl)-phenyl]methyl}-pyrazine-2-carboxylic acid amide]	0.007 to 0.03	10 to 30	> 25	–
NC(=O)C(c1cccnc1)c1cc(-c2ncnc3cc(N4CCOCC4)ccc23)c(F)cc1Cl (stereo not drawn) [Example 293, 2-[2-Chloro-4-fiuoro-5-(7-morpholin-4-yl-quinazolin-4-yl)-phenyl]-2-pyridin-3-ylacetamide]	0.003 to 0.007	5 to 10	> 25	–
NC(=O)C(c1cccnc1)c1cc(-c2ncnc3cc(N4CCOCC4)ccc23)c(F)cc1F (stereo not drawn) [Example 294, 2-[2,4-Difluoro-5-(7-morpholin-4-yl-quinazolin-4-yl)-phenyl]-2-pyridin-3-ylacetamide]	0.003 to 0.007	10 to 30	> 25	–
NC(=O)C(c1cccnc1)c1ccc(F)c(-c2ncnc3cc(N4CCOCC4)ccc23)c1 (stereo not drawn) [Example 295, 2-[4-Fluoro-3-(7-morpholin-4-yl-quinazolin-4-yl)-phenyl]-2-pyridin-3-ylacetamide]	0.007 to 0.03	10 to 30	> 25	–
Cc1cncc(C(O)c2ccc(F)c(-c3ncnc4cc(N5CCOCC5)ccc34)c2)n1 (stereo not drawn) [Example 296, [4-Floro-3-(7-morpholin-4-yl-quinazolin-4-yl)-phenyl]-(6-methyl-pyrazin-2-yl)-methanol]	0.007 to 0.03	5 to 10	> 25	–
NC(=O)C(c1cncc(Cl)c1)c1ccc(F)c(-c2ncnc3cc(N4CCOCC4)ccc23)c1 (stereo not drawn) [Example 297, 2-(5-Chloro-pyridin-3-yl)-2-[4-fluoro-3-(7-morpholin-4-yl-quinazolin-4-yl)-phenyl]acetamide]	0.007 to 0.03	10 to 30	–	10 to 15
NC(=O)C(c1cc(-c2ncnc3cc(N4CCOCC4)ccc23)c(F)cc1Cl)c1cccc2nncn12 (stereo not drawn) [Example 298, 2-[2-Chloro-4-fluoro-5-(7-morpholin-4-yl-quinazolin-4-yl)-phenyl]-2-[1,2,4]-triazolo[4,3-a]pyridin-5-ylacetamide]	0.007 to 0.03	10 to 30	> 25	–
NC(=O)C(c1ccc(F)c(-c2ncnc3cc(N4CCOCC4)ccc23)c1)c1ncnn2cccc12 (stereo not drawn) [Example 299, 2-[4-Fluoro-3-(7-morpholin-4-yl-quinazolin-4-yl)-phenyl]-2-pyrrolo-[2,1-f][1,2,4]triazin-4-ylacetamide]	0.007 to 0.03	10 to 30	< 10	–
NC(=O)C(c1cccnn1)c1cc(-c2ncnc3cc(N4CCOCC4)ccc23)c(F)cc1Cl (stereo not drawn) [Example 300, 2-[2-Chloro-4-fluoro-5-(7-morpholin-4-yl-quinazolin-4-yl)-phenyl]-2-pyridazin-3-ylacetamide]	0.007 to 0.03	10 to 30	> 25	–
Cc1cnc(C(C(N)=O)c2cc(-c3ncnc4cc(N5CCOCC5)ccc34)c(F)cc2Cl)c(C)n1 (stereo not drawn) [Example 301, 2-[2-Chloro-4-fluoro-5-(7-morpholin-4-yl-quinazolin-4-yl)-phenyl]-2-(3,5-dimethyl-pyrazin-2-yl)acetamide]	0.007 to 0.03	0.5 to 5	> 25	–
Nc1cncc(C(O)c2ccc(F)c(-c3ncnc4cc(N5CCOCC5)ccc34)c2)n1 (stereo not drawn) [Example 302, (6-Amino-pyrazin-2-yl)-[4-fluoro-3-(7-morpholin-4-yl-quinazolin-4-yl)-phenyl]methanol]	0.003 to 0.007	5 to 10	> 25	–
Cc1nccnc1C(C(N)=O)c1cc(-c2ncnc3cc(N4CCOCC4)ccc23)ccc1Cl (stereo not drawn) [Example 303, 2-[2-Chloro-5-(7-morpholin-4-yl-quinazolin-4-yl)-phenyl]-2-(3-methyl-pyrazin-2-yl)-acetamide]	0.007 to 0.03	5 to 10	–	15 to 25
COc1nccnc1C(C(N)=O)c1cc(-c2ncnc3cc(N4CCOCC4)ccc23)ccc1Cl (stereo not drawn) [Example 304, 2-[2-Chloro-5-(7-morpholin-4-yl-quinazolin-4-yl)-phenyl]-2-(3-methoxy-pyrazin-2-yl)acetamide]	0.007 to 0.03	5 to 10	> 25	–
COc1nccnc1C(C(N)=O)c1ccc(F)c(-c2ncnc3cc(N4CCOCC4)ccc23)c1 (stereo not drawn) [Example 305, 2-[4-Fluoro-3-(7-morpholin-4-yl-quinazolin-4-yl)-phenyl]-2-(3-methoxy-pyrazin-2-yl)acetamide]	0.007 to 0.03	5 to 10	> 25	–
COc1ccc(C(C(N)=O)c2cc(-c3ncnc4cc(N5CCOCC5)ccc34)c(F)cc2F)nn1 (stereo not drawn) [Example 306, 2-[2,4-Difluoro-5-(7-morpholin-4-yl-quinazolin-4-yl)-phenyl]-2-(6-methoxy-pyridazin-3-yl)acetamide]	0.007 to 0.03	10 to 30	> 25	–
COc1nnccc1C(C(N)=O)c1cc(-c2ncnc3cc(N4CCOCC4)ccc23)c(F)cc1Cl (stereo not drawn) [Example 307, 2-[2-Chloro-4-fluoro-5-(7-morpholin-4-yl-quinazolin-4-yl)-phenyl]-2-(3-methoxypyridazin-4-yl)acetamide]	0.003 to 0.007	5 to 10	> 25	–
COc1ccc(C(C(N)=O)c2ccc(F)c(-c3ncnc4cc(N5CCOCC5)ccc34)c2)nn1 (stereo not drawn) [Example 308, 2-[4-Fluoro-3-(7-morpholin-4-yl-quinazolin-4-yl)-phenyl]-2-(6-methoxypyridazin-3-yl)acetamide]	0.007 to 0.03	10 to 30	> 25	–
